From article PMC7404261 (2020)

Assays:
[1] = system: dsDNA-G4 (DNA, duplex) CGGGAAAAGGCGCGCGGAAGGGGT/ACCCCTTCCGCGCGCCTTTTCCCG; test: ethidium bromide staining of nondenaturing gel; details: K+ (100 mM KCl annealing, 10 mM KCl gel); Tris/HCl pH 7.5 annealing; 1x TBE gel; 1 µg/mL EthBr after ThT staining
[2] = system: ssDNA-G4-Rv (DNA, single strand) ACCCCTTCCGCGCGCCTTTTCCCG; test: ethidium bromide staining of nondenaturing gel; details: K+ (100 mM KCl annealing, 10 mM KCl gel); Tris/HCl pH 7.5 annealing; 1x TBE gel; 1 µg/mL EthBr after ThT staining
[3] = system: HpTYMS-G4-T-WC (DNA, hairpin) CCCTTTTCCGCGCGCCTTCCCCTTTTTGGGGAAGGCGCGCGGAAAAGGG; test: ThT staining of nondenaturing gel; details: K+ (100 mM KCl annealing, 10 mM KCl gel); Tris/HCl pH 7.5 annealing; 1x TBE gel; stained with 5 µM ThT
[4] = system: ssDNA-G4-Rv (DNA, single strand) ACCCCTTCCGCGCGCCTTTTCCCG; test: ThT staining of nondenaturing gel; details: K+ (100 mM KCl annealing, 10 mM KCl gel); Tris/HCl pH 7.5 annealing; 1x TBE gel; stained with 5 µM ThT
[5] = system: HpTYMS-G4-T (DNA, hairpin) GGGAAAAGGCGCGCGGAAGGGGTTTTTGGGGAAGGCGCGCGGAAAAGGG; test: ThT staining of nondenaturing gel; details: K+ (100 mM KCl annealing, 10 mM KCl gel); Tris/HCl pH 7.5 annealing; 1x TBE gel; stained with 5 µM ThT
[6] = system: dsDNA-G4 (DNA, duplex) CGGGAAAAGGCGCGCGGAAGGGGT/ACCCCTTCCGCGCGCCTTTTCCCG; test: ThT staining of nondenaturing gel; details: K+ (100 mM KCl annealing, 10 mM KCl gel); Tris/HCl pH 7.5 annealing; 1x TBE gel; stained with 5 µM ThT
[7] = system: ssDNA-G4-Fw (DNA, G4) CGGGAAAAGGCGCGCGGAAGGGGT; test: ThT staining of nondenaturing gel; details: K+ (100 mM KCl annealing, 10 mM KCl gel); Tris/HCl pH 7.5 annealing; 1x TBE gel; stained with 5 µM ThT

| SMILES | binding [1] | binding [2] | binding [3] | binding [4] | binding [5] | binding [6] | binding [7] |
| --- | --- | --- | --- | --- | --- | --- | --- |
| CC[n+]1c(-c2ccccc2)c2cc(N)ccc2c2ccc(N)cc21 | yes | yes | – | – | – | – | – |
| Cc1ccc2c(c1)sc(-c1ccc(N(C)C)cc1)[n+]2C | – | – | yes | no | yes | no | yes |
